Measurements from patent US20120004245A1, “COMPOUNDS FOR THE TREATMENT OF POSTERIOR SEGMENT DISORDERS AND DISEASES” (ALCON RESEARCH, LTD., priority 2010, published 2012).
Read-outs that look alike come from different tables or passages of the source.

What was measured:
[1] = system: VEGF-induced retinal vascular permeability; test: VEGF-induced retinal vascular permeability in the rat, intravitreal delivery; format: in vivo; conditions: for Efficacy (0.1%) / Efficacy (1%): inhibition of VEGF-induced RVP vs vehicle-injected controls, *P<0.05; for Efficacy (0.1%): single ivt injection of 0.1% suspension; for Efficacy (1%): single ivt injection of 1% suspension; for ED50 (nmole) / ED50 (μg) / Potency: rat VEGF-induced RVP; for ED50 (nmole) / ED50 (μg): dose-response, single ivt injection; for Potency: relative to reference standard, * = equipotent, 95% CL encompass 1.0
Experimental: METHODS: Adult Sprague-Dawley rats were anesthetized with intramuscular ketamine/xylazine and their pupils dilated with topical cycloplegics. […] Ten μl of each compound was intravitreally injected in each treatment eye (n=5˜6 animals per group). Three days following first intravitreal injection, all animals received an intravitreal injection of 10 μl 500 ng hr VEGF in both eyes. Twenty-four hours post-injection of VEGF, intravenous infusion of 3% Evans blue dye was performed in all animals, where 50 mg/kg of Evans blue dye was injected via the lateral tail vein during general anesthesia. After the dye had circulated for 90 minutes, the rats were euthanized. The rats were then systemically perfused with balanced salt solution, and then both eyes of each rat were immediately enucleated and the retinas harvested using a surgical microscope. After measurement of the retinal wet weight, the Evans blue dye was extracted by placing the retina in a 0.2 ml formamide (Sigma) and then the homogenized and ultracentrifuged. Blood samples were centrifuged and the plasma diluted 100 fold in formamide. For both retina and plasma samples, 60 μl of supernatant was used to measure the Evans blue dye absorbance (ABS) with at 620/740 nm. The blood-retinal barrier breakdown and subsequent retinal vascular permeability as measured by dye absorbance were calculated as means+/−s.e.m. of net ABS/wet weight/plasma ABS. One way ANOVA was used to determine an overall difference between treatment means. And a test or Man-Whitney rank sum test was performed for a pair-wise comparison between treatment groups, where P<0.05 was considered significant.

[2] = system: bovine retinal endothelial cells (BRECs); test: VEGF-induced proliferation of bovine retinal endothelial cells (BrdU ELISA); format: cell-based; conditions: for EC50: Bos taurus, Endothelial cell, read-out: VEGF ind BREC prolif EC50; for activity against VEGF-induced proliferation: in words, compared to Compounds I-VII
Experimental: METHODS. […] After another 22-24 hours the cells are treated with or without 50 ng/ml VEGF media and the test compounds in the 1% FBS media. After 30 hours BrdU is then added for the final 16 hours of the incubation. All cells are then fixed and assayed with a colorimetric BrdU ELISA kit.

[3] = system: preretinal neovascularization; test: Rat oxygen-induced retinopathy (OIR) model, prevention; format: in vivo; conditions: for ED50 (nmole) / ED50 (μg) / Potency: Rat OIR Prevention; for ED50 (nmole) / ED50 (μg): dose-response, single ivt injection; for Potency: relative to reference RTKi (=1); for Efficacy (0.1%) Median-value / Efficacy (1%) Median-value: rat OIR prevention, vs vehicle, *P<0.05; for Efficacy (0.1%) Median-value: single ivt injection of 0.1% suspension; for Efficacy (1%) Median-value: single ivt injection of 1% suspension
Description: (§1) METHODS: Pregnant Sprague-Dawley rats were received at 14 days gestation and subsequently gave birth on Day 22±1 of gestation. Immediately following parturition, pups were pooled and randomized into separate litters (n=17 pups/litter), placed into separate shoebox cages inside oxygen delivery chamber, and subjected to an oxygen-exposure profile from Day 0-14 postpartum. Litters were then placed into room air from Day 14/0 through Day 14/6 (days 14-20 postpartum). For prevention studies, each pup was randomly assigned into various treatment groups on Day 14/0. For those randomized into an injection treatment group: one eye received a 5 μl intravitreal injection of between 0.01%-1% of a RTKi and the contralateral eye received a 5 μl intravitreal injection of vehicle. At Day 14/6 (20 days postpartum), all animals were euthanized. For regression studies, each pup was randomly assigned as an oxygen-exposed control or into various treatment groups on […]. For those randomized into an injection treatment group: one eye received a 5 μl intravitreal injection of between 0.01%-1% RTKi and the contralateral eye received a 5 μl intravitreal injection of vehicle. At Day 14/7 (21 days postpartum), all animals were euthanized. Immediately following euthanasia, retinas from all rat pups were harvested, fixed in 10% neutral buffered formalin for 24 hours, subjected to ADPase staining, and fixed onto slides as whole mounts. Digital images were acquired from each retinal flat mount that was adequately prepared. Computerized image analysis was used to obtain a NV clockhour score from each readable sample. Each clockhour out of 12 total per retina was assessed for the presence or absence of preretinal NV. Statistical comparisons using median scores for NV clockhours from each treatment group were utilized in nonparametric analyses. Each noninjected pup represented one NV score by taking the average value of both eyes and was used in comparisons against each dosage group. Because the pups were randomly assigned and no difference was observed between oxygen-exposed control pups from all litters, the NV scores were combined for all treatment groups. P≦0.05 was considered statistically significant.

[4] = system: preretinal neovascularization; test: Rat oxygen-induced retinopathy (OIR) model, regression; format: in vivo; conditions: for ED50 (nmole) / ED50 (μg): dose-response, single ivt injection; for Potency: relative to reference RTKi (=1)
Description: as §1

[5] = system: laser-induced choroidal neovascularization (CNV); test: Mouse laser-induced CNV, prevention; conditions: single ivt injection
Description: METHODS. CNV was generated by laser-induced rupture of Bruch's membrane. […] A hand-held cover slip was applied to the cornea and used as a contact lens to aid visualization of the fundus. Three to four retinal burns were placed in randomly assigned eye (right or left eye for each mouse) using the Alcon 532 nm EyeLite laser with a slit lamp delivery system. The laser burns were used to generate a rupture in Bruch's membrane, which was indicated ophthalmoscopically by the formation of a bubble under the retina. Only mice with laser burns that produced three bubbles per eye were included in the study. Burns were typically placed at the 3, 6, 9 or 12 o'clock positions in the posterior pole of the retina, avoiding the branch retinal arteries and veins.
Each mouse was randomly assigned into one of the following treatment groups: noninjected controls, sham-injected controls, vehicle-injected mice, or one of three Compound-injected groups. Control mice received laser photocoagulation in both eyes, where one eye received a sham injection, i.e. a pars plana needle puncture. For intravitreal-injected animals, one laser-treated eye received a 2 or 5 μl intravitreal injection of 0.1%-3% of a RTKi or vehicle. For prevention studies, the intravitreal injection was performed immediately after laser photocoagulation. […] At 14 days post-laser, all mice were anesthetized and systemically perfused with fluorescein-labeled dextran. Eyes were then harvested and prepared as choroidal flat mounts with the RPE side oriented towards the observer. All choroidal flat mounts were examined using a fluorescent microscope. Digital images of the CNV were captured, where the CNV was identified as areas of hyperfluorescence within the pigmented background. Computerized image analysis was used to delineate and measure the two dimensional area of the hyperfluorescent CNV per lesion (μm^2) for the outcome measurement. The median CNV area/burn per mouse per treatment group or the mean CNV area/burn per treatment group was used for statistical analysis depending on the normality of data distribution; P<0.05 was considered significant.

KDR (VEGFR2) kinase = target: T1, KDR (VEGFR2) kinase (Homo sapiens, UniProt P35968); test: KDR HTRF kinase assay (KinEASE-TK); format: biochemical; conditions: for IC50: HTRF enzyme assay, KDR (human VEGFR2); for activity against KDR: in words, compared to Compounds I-VII
T1 construct: purchased Cell Signaling Technology
Experimental: METHODS. A 7-point HTRF (Homogeneous Time Resolved Fluorescence) kinase assays were performed using a Biomek 3000 Robotic Workstation in a 96-well plate format to determine IC50 values for the test compounds for KDR (VEGFR2) kinase using KinEASE-TK kit from CisBio. This is a general kit for tyrosine kinases including KDR kinase. The KDR kinase was purchased from Cell Signaling Technology. The assay is run in two steps. The phosphorylation of the biotin-tagged generic peptide substrate ([…]) is initiated by the addition of ATP ([…]) in the presence of KDR kinase (5 ng in […] reaction mixture) in step 1 and the reaction is stopped after 30 min incubation at room temperature by the addition of a mixture containing two HTRF detection reagents and EDTA in step 2. The substrate, enzyme, and ATP dilutions were made with the buffer provided by CisBio. Compound dilutions were made either in 5% DMSO or 10:10, (DMSO:Ethanol) to prepare 4× working stock solutions. The HTRF detection reagents were an antibody to phosphotyrosine, labeled with Eu(K) (the HTRF donor), and a streptavidin-XL665 (the HTRF acceptor).

[6] = system: best-corrected visual acuity (BCVA); conditions: intravitreal, 4 week intervals, Phase III trials; cited from earlier work
[7] = 50 ng/ml VEGF, BrdU incorporation
[8] = 20 μg/1.0%, * significant vs vehicle-injected controls

T1 sequence (P35968 20-1356): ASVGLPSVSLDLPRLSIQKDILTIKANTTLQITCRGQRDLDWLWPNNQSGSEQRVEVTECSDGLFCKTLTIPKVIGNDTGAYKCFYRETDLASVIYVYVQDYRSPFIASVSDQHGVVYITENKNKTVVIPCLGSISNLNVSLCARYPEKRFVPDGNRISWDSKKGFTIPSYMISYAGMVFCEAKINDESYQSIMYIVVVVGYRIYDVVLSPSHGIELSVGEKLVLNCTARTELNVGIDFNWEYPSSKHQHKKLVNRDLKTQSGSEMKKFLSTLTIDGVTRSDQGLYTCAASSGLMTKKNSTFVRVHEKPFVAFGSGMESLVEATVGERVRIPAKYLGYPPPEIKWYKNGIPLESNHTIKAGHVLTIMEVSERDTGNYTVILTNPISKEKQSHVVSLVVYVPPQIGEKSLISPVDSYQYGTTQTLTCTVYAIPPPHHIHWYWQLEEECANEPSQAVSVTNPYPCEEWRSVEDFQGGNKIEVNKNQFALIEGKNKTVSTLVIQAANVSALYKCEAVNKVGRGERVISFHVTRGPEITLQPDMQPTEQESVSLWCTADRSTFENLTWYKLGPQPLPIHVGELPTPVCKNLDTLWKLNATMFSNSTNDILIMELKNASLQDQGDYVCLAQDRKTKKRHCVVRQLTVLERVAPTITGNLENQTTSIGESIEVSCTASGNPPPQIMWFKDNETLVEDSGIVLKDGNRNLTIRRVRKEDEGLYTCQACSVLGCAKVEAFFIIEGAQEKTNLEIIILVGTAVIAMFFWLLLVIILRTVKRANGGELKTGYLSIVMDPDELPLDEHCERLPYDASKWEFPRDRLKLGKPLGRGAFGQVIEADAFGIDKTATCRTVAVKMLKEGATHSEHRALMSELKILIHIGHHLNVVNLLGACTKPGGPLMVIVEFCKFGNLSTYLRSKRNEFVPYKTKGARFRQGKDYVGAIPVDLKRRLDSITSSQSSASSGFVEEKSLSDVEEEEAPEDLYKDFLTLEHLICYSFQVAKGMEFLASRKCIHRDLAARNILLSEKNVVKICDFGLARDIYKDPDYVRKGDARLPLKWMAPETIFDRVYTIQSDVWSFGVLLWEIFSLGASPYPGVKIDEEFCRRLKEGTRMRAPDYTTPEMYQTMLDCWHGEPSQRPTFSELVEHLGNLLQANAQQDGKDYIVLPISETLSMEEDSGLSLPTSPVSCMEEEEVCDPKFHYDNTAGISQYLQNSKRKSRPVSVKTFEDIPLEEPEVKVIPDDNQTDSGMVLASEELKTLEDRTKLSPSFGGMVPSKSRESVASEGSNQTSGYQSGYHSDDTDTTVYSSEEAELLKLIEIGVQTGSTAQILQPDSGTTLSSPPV

Row | Molecule | Efficacy (0.1%) [1] | Efficacy (1%) [1] | ED50 (nmole) [1] | ED50 (μg) [1] [µg] | Potency [1] | EC50 [2, 7] [nM] | ED50 (nmole) [3] [nmol] | ED50 (μg) [3] [µg] | Potency [3] | Efficacy (0.1%) Median-value [3] | Efficacy (1%) Median-value [3] | ED50 (nmole) [4] [nmol] | ED50 (μg) [4] [µg] | Potency [4] | Prevention Efficacy ([5]; 2 μg/0.1%) | Prevention Efficacy [5, 8] | also measured
1 | Cc1cccc(NC(=O)Nc2ccc(-c3csc4ccnc(N)c34)cc2)c1 [V, 1-[4-(4-Amino-thieno[3,2-c]pyridin-3-yl)-phenyl]-3-m-tolyl-urea] | 64.0% | 40.4% | 3.8^ nmole | 1.42 | 1.38* | 1.57 ± 1.24 | 24.11 | 9.03 | 1.94 | 16.9% | 100%* | – | – | – | – | – | –
2 | Cc1cccc(NC(=O)Nc2ccc(-c3csc4c(-c5cccnc5)cnc(N)c34)cc2)c1 [VII, 1-[4-(4-Amino-7-pyridin-3-yl-thieno[3,2-c]pyridin-3-yl)-phenyl]-3-m-tolyl-urea] | 84%* | 73.5%* | 5.47 nmol | 2.47 | 0.621* | 0.11 ± 0.086 | 15.74 | 7.11 | 3.23 | 9.6% | 100* % | 20.86 | 9.42 | 2.49 | – | – | –
3 | Cc1cccc(NC(=O)Nc2ccc(-c3cncc4[nH]nc(N)c34)cc2)c1 [Compound I, 1-[4-(3-Amino-1H-pyrazolo[3,4-c]pyridin-4-yl)-phenyl]-3-m-tolyl-urea] | 65.4%* | 88.9%* | 4.04^ nmole | 1.447 | 1.2* | – | 13.44 | 4.82 | 5.75 | 100%* | 100%* | 25.47 | 9.13 | 2.26 | −53.8% | 37.6% | EC50 [2]: 0.16 nM
4 | Cc1cccc(NC(=O)Nc2ccc(-c3csc4ncnc(N)c34)cc2)c1 [Compound II, 1-[4-(4-Amino-thieno[2,3-d]pyrimidin-5-yl)-phenyl]-3-m-tolyl-urea] | 85.2%* | 85.7%* | 7.62 nmol | 2.86 | 0.392* | 0.11 | 12.17 | 4.57 | 6.23 | 32.2% | 100%* | 24.31 | 9.13 | 2.3 | 2 μg/0.1% = 40.6% | 20 μg/1.0% = 69.0%* | Relative Potency vs Reference ([2]; BREC proliferation, relative to reference standard RTKi): 14.5 ± 15.1
5 | Nc1n[nH]c2cccc(-c3ccc(NC(=O)Nc4c(Cl)cccc4Cl)cc3)c12 [VIII] | – | – | – | – | – | – | – | – | – | – | – | – | – | – | – | – | IC50 (KDR (VEGFR2) kinase): > 10000 nM; activity against KDR (KDR (VEGFR2) kinase): essentially have no activity; VEGF ind BREC prolif EC50 [2, 7]: Not Active; activity against VEGF-induced proliferation [2]: completely inactive
6 | Cc1cccc(NC(=O)Nc2ccc(-c3csc4c(-c5ccncc5)cnc(N)c34)cc2)c1 [VI, 1-[4-(4-Amino-7-pyridin-4-yl-thieno[3,2-c]pyridin-3-yl)-phenyl]-3-m-tolyl-urea] | 106.5%* | 70.6%* | – | – | – | 0.07 ± 0.069 | 13.31 | 6.01 | 3.86 | 35.7% | 88.4* % | 39.46 | 17.82 | 1.75 | – | – | –
7 | Cc1cc(O)cc(NC(=O)Nc2ccc(-c3cccc4[nH]nc(N)c34)cc2)c1 [III, 1-[4-(3-Amino-1H-indazol-4-yl)-phenyl]-3-(3-hydroxy-5-methyl-phenyl)-urea] | −96.7% | −316.9% | >80.3 nmol | >30 | 0.028 | 0.45 ± 0.05 | 15.85 | 5.92 | 4.03 | 1.5% | 100%* | – | – | – | – | – | –
8 | COCCOc1ccc(-c2ccc(NC(=O)Nc3cccc(C)c3)cc2)c2c(N)n[nH]c12 [IV, 1-{4-[3-Amino-7-(2-methoxy-ethoxy)-1H-indazol-4-yl]-phenyl}-3-m-tolyl-urea] | 73.9%* | −148.2% | – | – | – | 0.1 ± 0.01 | 13.23 | 5.71 | 4.2 | 100%* | 100%* | – | – | – | 2 μg/0.1% = 1.1% | 20 μg/1.0% = 49.7%* | Prevention Efficacy ([5]; 6 μg/0.3%): 6 μg/0.3% = 13.9%
9 | Cc1ccc(F)c(NC(=O)Nc2ncc(-c3cccc4[nH]nc(N)c34)cn2)c1 [IX] | – | – | – | – | – | – | – | – | – | – | – | – | – | – | – | – | IC50 (KDR (VEGFR2) kinase): > 10000 nM; activity against KDR (KDR (VEGFR2) kinase): essentially have no activity; VEGF ind BREC prolif EC50 [2, 7]: Not Active; activity against VEGF-induced proliferation [2]: completely inactive
10 | Lucentis: Fab fragment of a humanized monoclonal antibody that binds all isoforms of VEGF-A (antibody, chains of the INN, looked up, V domains shown, Fab) VH: EVQLVESGGGLVQPGGSLRLSCAASGYDFTHYGMNWVRQAPGKGLEWVGWINTYTGEPTYAADFKRRFTFSLDTSKSTAYLQMNSLRAEDTAVYYCAKYPYYYGTSHWYFDVWGQGTLVTVSS VL: DIQLTQSPSSLSASVGDRVTITCSASQDISNYLNWYQQKPGKAPKVLIYFTSSLHSGVPSRFSGSGSGTDFTLTISSLQPEDFATYYCQQYSTVPWTFGQGTKVEIK | – | – | – | – | – | – | – | – | – | – | – | – | – | – | – | – | treated patients with maintained best-corrected visual acuity (BCVA) [6]: 95%
